Experimental findings from US12331041B2, “GLP-1 receptor agonists and uses thereof” (Pfizer Inc., priority 2018, dated 2025) are described below.

Structures are written as SMILES. pEC50: −log10 of the molar value. Counter-ions that a name gives are not always drawn.

For assay [1], the target named is T1, human GLP-1R (Homo sapiens, UniProt P43220, G168S).
T1 construct: expressed in transfected cells
The assay is described as follows: CHO GLP-1R Clone H6 - Assay 1 (HTRF cAMP agonist assay). In kind it is cell-based. The note with it: for pEC50: CHO Clone H6, high GLP-1R density, cAMP, geometric mean; for Emax: CHO Clone H6, relative to saturating full agonist GLP-1 7-36 (1 μM), arithmetic mean. Summed up:
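CHO Clone H6 cells stably expressing human GLP-1R (G168S) were plated 48 h, then given compound for 30 min at 37° C in HBSS/0.1% BSA/HEPES with 100 μM IBMX and 1% DMSO. cAMP was measured by HTRF against a standard curve.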

Assay [2] addresses T2, human GLP-1R (Homo sapiens, UniProt P43220, L260F).
T2 construct: expressed in transfected cells; host or cells: CHO Flp-In T-REx, clonal line C6 (pcDNA5-FRT-TO)
The assay is described as follows: CHO GLP-1R Clone C6 - Assay 2 (HTRF cAMP agonist assay). In kind it is cell-based. The note with it: for pEC50: CHO clone C6, low GLP-1R density, cAMP, geometric mean; for Emax: CHO clone C6, relative to saturating full agonist GLP-1 (1 μM), arithmetic mean.

T1 sequence (P43220 24-463 G168S): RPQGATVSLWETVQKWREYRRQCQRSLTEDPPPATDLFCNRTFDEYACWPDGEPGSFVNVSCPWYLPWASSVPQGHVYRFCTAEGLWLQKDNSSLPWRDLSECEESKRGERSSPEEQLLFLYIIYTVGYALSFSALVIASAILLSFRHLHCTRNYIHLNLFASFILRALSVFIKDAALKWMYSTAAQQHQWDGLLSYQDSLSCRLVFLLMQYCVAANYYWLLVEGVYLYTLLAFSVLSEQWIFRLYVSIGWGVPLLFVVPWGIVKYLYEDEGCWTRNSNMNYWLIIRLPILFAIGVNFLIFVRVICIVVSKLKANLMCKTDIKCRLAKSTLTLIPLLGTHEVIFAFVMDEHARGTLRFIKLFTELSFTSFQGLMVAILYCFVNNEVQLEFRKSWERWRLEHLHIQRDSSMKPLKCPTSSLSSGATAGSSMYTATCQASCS
T2 sequence (P43220 24-463 L260F): as the sequence (P43220 24-463 G168S) above, with S145G, L237F counted along it

On human GLP-1R [1], `N#Cc1ccc(COc2nc(N3CCC4(CC3)CC4c3nc4ccc(C(=O)O)cc4n3Cc3ncco3)c(F)cc2F)c(F)c1` (stereo not drawn) [Example 61, 2-(6-{6-[(4-cyano-2-fluorobenzyl)oxy]-3,5-difluoropyridin-2-yl}-6-azaspiro[2.5]oct-1-yl)-1-(1,3-oxazol-2-ylmethyl)-1H-benzimidazole-6-carboxylic acid, trifluoroacetate salt] gave a pEC50 of 8.96 and an Emax of 68%. In addition, at human GLP-1R [2], the negative logarithm of the EC50 (pEC50) is 7.59 and the Emax worked out at 74%.

As to `C[C@H]1CN(c2nc(OCc3ccc(Cl)cc3F)ncc2F)CCN1Cc1nc2ccc(C(=O)O)cc2n1C[C@@H]1CCO1` [Example 69, Ammonium 2-{[(2S)-4-{2-[(4-chloro-2-fluorobenzyl)oxy]-5-fluoropyrimidin-4-yl}-2-methylpiperazin-1-yl]methyl}-1-[(2S)-oxetan-2-ylmethyl]-1H-benzimidazole-6-carboxylate], on human GLP-1R [1], the pEC50 is 9.04 and the Emax was 89%. At human GLP-1R [2], this compound had a pEC50 of 7.74 and an Emax of 110%.

Turning to `O=C(O)c1ccc2nc(C3CC34CCN(c3nc(OCc5ccc(Cl)cc5F)ncc3F)CC4)n(Cc3cocn3)c2c1` (stereo not drawn) [Example 43, 2-(6-{2-[(4-chloro-2-fluorobenzyl)oxy]-5-fluoropyrimidin-4-yl}-6-azaspiro[2.5]oct-1-yl)-1-(1,3-oxazol-4-ylmethyl)-1H-benzimidazole-6-carboxylic acid, trifluoroacetate salt, from P7], the pEC50 at human GLP-1R [1] is 7.89; on human GLP-1R [2], 6.60. Besides, the results for the maximum response (Emax) on human GLP-1R [1] and at human GLP-1R [2] were 75% and 70%, respectively.

Consider `CCn1cncc1Cn1c(CN2CCC(c3nccnc3OCc3ccc(Cl)cc3F)CC2)nc2ccc(C(=O)O)cc21` [Example 20, 2-[(4-{3-[(4-chloro-2-fluorobenzyl)oxy]pyrazin-2-yl}piperidin-1-yl)methyl]-1-[(1-ethyl-1H-imidazol-5-yl)methyl]-1H-benzimidazole-6-carboxylic acid, trifluoroacetate salt], for which the pEC50 at human GLP-1R [1] was 9.47; on human GLP-1R [2], 8.21. Moreover, the Emax at human GLP-1R [1] was 80%; on human GLP-1R [2], 91%.

Turning to `COCCn1c(CN2CCC(c3cccnc3OCc3ccc(C#N)cc3F)CC2)nc2ccc(C(=O)O)cc21` [Example 9, 2-[(4-{2-[(4-cyano-2-fluorobenzyl)oxy]pyridin-3-yl}piperidin-1-yl)methyl]-1-(2-methoxyethyl)-1H-benzimidazole-6-carboxylic acid, trifluoroacetate salt], at human GLP-1R [1], the pEC50 is 7.55 and the Emax was determined as 77%. Also, at human GLP-1R [2], the pEC50 is 6.15 and the Emax is 81%.

As to `C[C@H]1CN(c2ccnc(OCc3ccc(Cl)cc3F)n2)CCN1Cc1nc2ccc(C(=O)O)cc2n1Cc1ncco1` [Example 78, 2-{[(2S)-4-{2-[(4-chloro-2-fluorobenzyl)oxy]pyrimidin-4-yl}-2-methylpiperazin-1-yl]methyl}-1-(1,3-oxazol-2-ylmethyl)-1H-benzimidazole-6-carboxylic acid, trifluoroacetate salt], the negative logarithm of the EC50 (pEC50) at human GLP-1R [1] is 7.77; at human GLP-1R [2], 6.36. For the same compound, the Emax stood at 79% at human GLP-1R [1] and 81% at human GLP-1R [2].

Regarding `C[C@H]1CN(c2ccnc(OCc3ccc(Cl)cc3F)n2)CCN1Cc1nc2ccc(C(=O)O)cc2n1C[C@@H]1CCO1` [Example 73, 2-{[(2S)-4-{2-[(4-chloro-2-fluorobenzyl)oxy]pyrimidin-4-yl}-2-methylpiperazin-1-yl]methyl}-1-[(2S)-oxetan-2-ylmethyl]-1H-benzimidazole-6-carboxylic acid], the pEC50 is 8.62 at human GLP-1R [1] and 7.05 on human GLP-1R [2]. Besides, the maximal response (Emax) at human GLP-1R [1] is 84%; at human GLP-1R [2], 100%.

On human GLP-1R [1], `O=C(O)c1ccc2nc(CN3CCN(c4nc(OCc5ccc(Cl)cc5F)ncc4F)CC3)n(C[C@@H]3CCO3)c2c1` [Example 72, 2-[(4-{2-[(4-chloro-2-fluorobenzyl)oxy]-5-fluoropyrimidin-4-yl}piperazin-1-yl)methyl]-1-[(2S)-oxetan-2-ylmethyl]-1H-benzimidazole-6-carboxylic acid] showed a pEC50 of 8.22 and an Emax of 96%. On human GLP-1R [2], this compound showed a negative-log EC50 (pEC50) of 6.92 and an Emax of 130%.

At human GLP-1R [1], `CCn1nncc1Cn1c(CN2CCC(c3cccnc3OCc3ccc(C#N)cc3F)CC2)nc2ccc(C(=O)O)cc21` [Example 17, 2-[(4-{2-[(4-cyano-2-fluorobenzyl)oxy]pyridin-3-yl}piperidin-1-yl)methyl]-1-[(1-ethyl-1H-1,2,3-triazol-5-yl)methyl]-1H-benzimidazole-6-carboxylic acid, trifluoroacetate salt] gave a pEC50 of 8.22 and an Emax of 86%. Besides, on human GLP-1R [2], the pEC50 was 6.82 and the Emax amounted to 91%.

As to `O=C(O)c1ccc2nc(CN3CCC(c4cccnc4OCc4ccc(Cl)cc4F)CC3)n(Cc3ncco3)c2c1` [Example 2, 2-[(4-{2-[(4-chloro-2-fluorobenzyl)oxy]pyridin-3-yl}piperidin-1-yl)methyl]-1-(1,3-oxazol-2-ylmethyl)-1H-benzimidazole-6-carboxylic acid, trifluoroacetate salt], the pEC50 at human GLP-1R [1] is 8.49; at human GLP-1R [2], 7.42. Moreover, the Emax at human GLP-1R [1] came out at 79%; at human GLP-1R [2], 81%.

Regarding `O=C(O)c1ccc2nc(CN3CCC(c4ccnc(OCc5ccc(Cl)cc5F)n4)CC3)n(Cc3ncco3)c2c1` [Example 68, 2-[(4-{2-[(4-chloro-2-fluorobenzyl)oxy]pyrimidin-4-yl}piperidin-1-yl)methyl]-1-(1,3-oxazol-2-ylmethyl)-1H-benzimidazole-6-carboxylic acid, trifluoroacetate salt], on human GLP-1R [1], the negative-log EC50 (pEC50) is 8.08 and the Emax worked out at 77%. On human GLP-1R [2], this compound gave a negative-log EC50 (pEC50) of 6.51 and a maximum response (Emax) of 92%.

In the case of `O=C(O)c1ccc2nc(CN3CCC(c4cccnc4OCc4ccc(Cl)cc4F)CC3)n(CCN3CCOC3=O)c2c1` [Example 14, 2-[(4-{2-[(4-chloro-2-fluorobenzyl)oxy]pyridin-3-yl}piperidin-1-yl)methyl]-1-[2-(2-oxo-1,3-oxazolidin-3-yl)ethyl]-1H-benzimidazole-6-carboxylic acid, trifluoroacetate salt], on human GLP-1R [1], the negative-log EC50 (pEC50) was 7.85 and the Emax was 77%. Besides, on human GLP-1R [2], the pEC50 is 6.27 and the Emax turned out to be 120%.

The pEC50 is the negative decadic logarithm of the EC50, by convention in mol/L. Low values mean a high EC50, high ones a low EC50. Usually Emax stands for the greatest response seen or fitted, relative to the assay's reference.
